From patent US12319655B2, “RAF kinase inhibitors and methods of use thereof” (Deciphera Pharmaceuticals, LLC, priority 2021, dated 2025)

Experiments:
[1] = target: A-Raf kinase (SEQ. ID No: 1) (Homo sapiens (Human), UniProt P10398, Y301D/Y302D); assay: Biochemical Assay for A-Raf (1); settings: Table J, assay version (1); read-out: ARAF (1) IC50
Outline: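 A-Raf Y301D/Y302D at 5.55 nM phosphorylates 30.1 nM MEK with 1 mM ATP in pH 7.5 Tris buffer, 1% DMSO. Activity was read continuously as NADH oxidation at 340 nm in a pyruvate kinase/lactate dehydrogenase coupled system for 6 h at 30 °C. Rates from 4–5 h were converted to percent inhibition, and IC50 came from a four-parameter fit.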

A375 cells = assay: A375 Cell Proliferation Assay (1); format: cell-based; settings: Homo sapiens, A-375
Outline: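 Resazurin fluorescence (excitation 540 nm, emission 600 nm, after a further 5-6 h) gave IC50s from triplicate compound dilution series.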

[2] = target: B-Raf kinase (SEQ. ID NO: 2) (Homo sapiens (Human), UniProt P15056); assay: Biochemical Assay for B-Raf (1); settings: Table J, assay version (1); read-out: BRAF (1) IC50
Sequence of B-Raf kinase (SEQ. ID NO: 2) (P15056 416-766): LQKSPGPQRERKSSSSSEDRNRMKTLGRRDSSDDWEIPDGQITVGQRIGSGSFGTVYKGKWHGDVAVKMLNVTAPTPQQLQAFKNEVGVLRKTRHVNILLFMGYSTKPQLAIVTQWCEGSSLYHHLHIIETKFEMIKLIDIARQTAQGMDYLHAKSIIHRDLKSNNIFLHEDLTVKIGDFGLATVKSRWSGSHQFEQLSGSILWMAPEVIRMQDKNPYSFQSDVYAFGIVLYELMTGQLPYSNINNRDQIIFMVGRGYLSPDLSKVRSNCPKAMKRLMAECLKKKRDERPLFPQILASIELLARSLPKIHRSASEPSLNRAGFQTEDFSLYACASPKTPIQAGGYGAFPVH
Outline: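 Continuous PK/LDH-coupled NADH oxidation assay, A340 read for 6 h at 30° C., with 0.13 nM B-Raf, 30.1 nM MEK substrate and 1 mM ATP in Tris pH 7.5, MgCl2, DTT, detergents, 1% DMSO. Rate taken from 4–5 h window; percent inhibition vs no-compound and known-inhibitor controls; four-parameter fit gives IC50.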

WM3928 cells = assay: WM3928 Cell Proliferation Assay (1); format: cell-based
Outline: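 IC50 was derived from resazurin fluorescence (ex 540, em 600 nm) after a 6–7 h dye incubation. Before that, cells had 67–72 h of compound exposure at 37 °C, 5% CO2.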

Sequence of A-Raf kinase (SEQ. ID No: 1) (P10398 other isoform, or with tags, fused parts or gaps Y301D (already in the parent)/Y302D (already in the parent)): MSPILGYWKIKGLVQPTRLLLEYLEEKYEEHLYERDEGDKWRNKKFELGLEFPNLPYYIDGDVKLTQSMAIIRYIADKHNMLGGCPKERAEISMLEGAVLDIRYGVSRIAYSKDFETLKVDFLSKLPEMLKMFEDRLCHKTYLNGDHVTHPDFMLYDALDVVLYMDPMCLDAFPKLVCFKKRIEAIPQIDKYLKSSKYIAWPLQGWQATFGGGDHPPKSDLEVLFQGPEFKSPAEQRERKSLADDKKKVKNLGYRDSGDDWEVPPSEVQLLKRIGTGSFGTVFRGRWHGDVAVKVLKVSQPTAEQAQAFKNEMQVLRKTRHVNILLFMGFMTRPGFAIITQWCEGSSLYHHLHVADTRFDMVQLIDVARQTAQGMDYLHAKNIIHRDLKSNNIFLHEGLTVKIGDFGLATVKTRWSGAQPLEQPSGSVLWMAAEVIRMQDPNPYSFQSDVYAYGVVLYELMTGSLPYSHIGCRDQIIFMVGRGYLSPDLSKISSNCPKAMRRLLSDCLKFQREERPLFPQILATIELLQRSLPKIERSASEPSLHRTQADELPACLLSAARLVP

| SMILES | IC50 [1] [nM] | IC50 (A375 cells) [nM] | IC50 [2] [nM] | IC50 (WM3928 cells) [nM] |
| --- | --- | --- | --- | --- |
| COC(=O)Nc1cc(-c2cccc(-c3cc(NC(=O)c4ccnc(C5CC5)c4)cnc3C)c2)ccn1 [Example 288] | 1000 to 10000 | 1000 to 10000 | ≤ 100 | 1000 to 10000 |
| COC(=O)Nc1nccc(-c2cccc(-c3cc(NC(=O)c4ccnc(C(C)(C)C#N)c4)cnc3C)c2)n1 [Example 290] | 1000 to 10000 | 1000 to 10000 | 500 to 1000 | 500 to 1000 |
| Cc1ncc(NC(=O)c2ccnc(C3CC3)c2)cc1-c1cccc(-c2cc(NC(=O)C3CC3)ncn2)c1 [Example 291] | 1000 to 10000 | 100 to 500 | ≤ 100 | ≤ 100 |
| Cc1ncc(NC(=O)c2ccnc(C3CC3)c2)cc1-c1nccc(-c2ccnc(NC(=O)C3CC3)c2)n1 [Example 295] | 1000 to 10000 | 500 to 1000 | ≤ 100 | 100 to 500 |
| COC(=O)Nc1cc(-c2cc(-c3cc(NC(=O)c4ccnc(C(C)(C)C#N)c4)cnc3C)ccn2)ccn1 [Example 297] | 1000 to 10000 | ≤ 100 | ≤ 100 | ≤ 100 |
| Cc1cc(F)c(NC(=O)c2ccnc(C(C)(C)C#N)c2)cc1-c1cc(-c2ccnc(NC(=O)C3CC3)c2)cnn1 [Example 298] | 1000 to 10000 | 100 to 500 | ≤ 100 | 100 to 500 |
| COC(=O)Nc1cc(-c2cnnc(-c3cc(NC(=O)c4ccnc(C(C)(C)C#N)c4)c(F)cc3C)c2)ccn1 [Example 299] | 1000 to 10000 | 100 to 500 | ≤ 100 | 500 to 1000 |
| Cc1cc(F)c(NC(=O)c2ccnc(C(C)(C)F)c2)cc1-c1ccnc(-c2ccnc(NC(=O)C3CC3)c2)c1 [Example 300] | 1000 to 10000 | ≤ 100 | ≤ 100 | ≤ 100 |
| Cc1ncc(NC(=O)c2ccnc(C(C)(C)C#N)c2)cc1-c1cccc(-c2ccnc(C(N)=O)c2)c1 [Example 301] | 1000 to 10000 | 100 to 500 | ≤ 100 | 100 to 500 |
| COC(=O)Nc1cc(-c2cc(-c3cc(NC(=O)c4ccnc(C(C)(C)F)c4)c(F)cc3C)ccn2)ccn1 [Example 302] | 1000 to 10000 | ≤ 100 | ≤ 100 | ≤ 100 |
| COC(=O)Nc1cc(-c2nccc(-c3cc(NC(=O)c4ccnc(C(C)(C)C#N)c4)c(F)cc3C)n2)ccn1 [Example 303] | 1000 to 10000 | ≤ 100 | ≤ 100 | ≤ 100 |
| COC(=O)Nc1cc(-c2nccc(-c3cc(NC(=O)c4ccnc(C(C)(C)F)c4)c(F)cc3C)n2)ccn1 [Example 304] | 1000 to 10000 | 100 to 500 | ≤ 100 | ≤ 100 |
| COC(=O)Nc1cc(-c2cnnc(-c3cc(NC(=O)c4ccnc(C(C)(C)C#N)c4)ccc3C)c2)ccn1 [Example 305] | 1000 to 10000 | 100 to 500 | ≤ 100 | 100 to 500 |
| Cc1cc(F)c(NC(=O)c2ccnc(C(F)F)c2)cc1-c1ccnc(-c2ccnc(NC(=O)C3CC3)c2)c1 [Example 307] | 500 to 1000 | 500 to 1000 | ≤ 100 | 100 to 500 |
| COC(=O)Nc1cc(-c2cc(-c3cc(NC(=O)c4ccnc(C(C)(C)C#N)c4)c(F)cc3C)ccn2)ccn1 [Example 308] | 1000 to 10000 | ≤ 100 | ≤ 100 | ≤ 100 |
| COC(=O)Nc1cc(-c2cc(-c3cc(NC(=O)c4ccnc(C(F)(F)F)c4)cnc3C)ccn2)ccn1 [Example 312] | 1000 to 10000 | 100 to 500 | ≤ 100 | 1000 to 10000 |

More lines, main results first:

| IC50 [1] [nM] | IC50 (A375 cells) [nM] | IC50 [2] [nM] | SMILES | IC50 (WM3928 cells) [nM] |
| --- | --- | --- | --- | --- |
| 1000 to 10000 | 1000 to 10000 | ≤ 100 | COC(=O)Nc1cc(-c2cc(-c3cc(NC(=O)c4ccnc(C(F)F)c4)cnc3C)ccn2)ccn1 [Example 313] | 1000 to 10000 |
| 1000 to 10000 | 100 to 500 | 100 to 500 | CNC(=O)c1cc(-c2cnnc(-c3cc(NC(=O)c4ccnc(C(C)(C)C#N)c4)ccc3C)c2)ccn1 [Example 314] | 500 to 1000 |
| 500 to 1000 | ≤ 100 | ≤ 100 | Cc1ccc(NC(=O)c2ccnc(C(C)(C)F)c2)cc1-c1cc(-c2ccnc(NC(=O)C3CC3)c2)cnn1 [Example 315] | ≤ 100 |
| 1000 to 10000 | 1000 to 10000 | ≤ 100 | Cc1ccc(NC(=O)c2cn(C(C)C)nn2)cc1-c1cc(-c2ccnc(NC(=O)C3CC3)c2)cnn1 [Example 320] | 1000 to 10000 |
| 1000 to 10000 | 100 to 500 | ≤ 100 | Cc1ccc(NC(=O)c2cnn(C(C)(C)C)c2)cc1-c1cc(-c2ccnc(NC(=O)C3CC3)c2)cnn1 [Example 321] | 100 to 500 |
| 1000 to 10000 | 100 to 500 | ≤ 100 | COC(=O)Nc1cc(-c2cc(-c3cc(NC(=O)c4ccnc(C(C)(C)F)c4)cnc3C)ccn2)ccn1 [Example 323] | 100 to 500 |
| 1000 to 10000 | 100 to 500 | 100 to 500 | CNC(=O)c1cc(-c2cnnc(-c3cc(NC(=O)c4ccnc(C(C)(C)F)c4)ccc3C)c2)ccn1 [Example 325] | 500 to 1000 |
| 1000 to 10000 | 1000 to 10000 | 100 to 500 | CNC(=O)c1cc(-c2cnnc(-c3cc(NC(=O)c4ccnc(C5CC5)c4)ccc3C)c2)ccn1 [Example 326] | 1000 to 10000 |
| 1000 to 10000 | 1000 to 10000 | 100 to 500 | CNC(=O)c1cc(-c2cnnc(-c3cc(NC(=O)c4ccnc(C(F)F)c4)ccc3C)c2)ccn1 [Example 327] | 1000 to 10000 |
| 1000 to 10000 | 100 to 500 | 500 to 1000 | CNC(=O)c1cc(-c2cnnc(-c3cc(NC(=O)c4ccnc(C(C)(C)OC)c4)ccc3C)c2)ccn1 [Example 328] | 1000 to 10000 |
| 1000 to 10000 | 500 to 1000 | 500 to 1000 | CNC(=O)c1cc(-c2cnnc(-c3cc(NC(=O)c4ccc(F)c(C(F)(F)F)c4)ccc3C)c2)ccn1 [Example 329] | 1000 to 10000 |
| 1000 to 10000 | 100 to 500 | ≤ 100 | Cc1ccc(NC(=O)c2ccnc(C3CC3)c2)cc1-c1cc(-c2ccnc(NC(=O)C3CC3)c2)cnn1 [Example 331] | 500 to 1000 |
| 1000 to 10000 | 1000 to 10000 | ≤ 100 | Cc1ccc(NC(=O)c2ccnc(S(C)(=O)=O)c2)cc1-c1cc(-c2ccnc(NC(=O)C3CC3)c2)cnn1 [Example 332] | 1000 to 10000 |
| 1000 to 10000 | 1000 to 10000 | 100 to 500 | CO[C@H]1CC[C@H](C(=O)Nc2ccc(C)c(-c3ccnc(-c4ccnc(NC(=O)C5CC5)c4)n3)c2)CC1 [Example 341] | 1000 to 10000 |
| 1000 to 10000 | 1000 to 10000 | 100 to 500 | Cc1ncc(NC(=O)C2CCOC(C)(C)C2)cc1-c1cccc(-c2cc(NC(=O)C3CC3)ncn2)c1 (stereo not drawn) [Example 348] | 1000 to 10000 |
| 1000 to 10000 | 1000 to 10000 | ≤ 100 | CNC(=O)c1cc(-c2cc(-c3cc(NC(=O)COCC4CC4)ccc3C)ccn2)ccn1 [Example 358] | 1000 to 10000 |
| 1000 to 10000 | 1000 to 10000 | 500 to 1000 | COC(=O)Nc1cc(-c2cnnc(-c3cc(NC(=O)COCC4CC4)ccc3C)c2)ccn1 [Example 360] | 1000 to 10000 |
| 1000 to 10000 | 1000 to 10000 | 100 to 500 | CNC(=O)c1cc(-c2cnnc(-c3cc(NC(=O)c4ccnc(C(F)(F)F)c4)ccc3C)c2)ccn1 [Example 364] | 1000 to 10000 |
| 1000 to 10000 | 1000 to 10000 | ≤ 100 | Cc1ccc(NC(=O)C2CCOC(C(C)C)C2)cc1-c1cc(-c2ccnc(NC(=O)C3CC3)c2)cnn1 (stereo not drawn) [Example 370] | 1000 to 10000 |
| 1000 to 10000 | 100 to 500 | 100 to 500 | CNC(=O)c1cc(-c2cc(-c3cc(NC(=O)c4ccnc(C(C)(C)F)c4)ccc3C)cnc2C)ccn1 [Example 371] | 100 to 500 |
